Molecules are shown by their SMILES.

The text below walks through data of PMC10011747, “Targeting androgen receptor and the variants by an orally bioavailable Proteolysis Targeting Chimeras compound in castration resistant prostate cancer” (eBioMedicine, 2023).

Test [1] relates to AR-negative PC3 cells. As to the kind of experiment: Cell viability, PC3. The test is classed as cell-based, human. Conditions: 7 days treatment. The procedure:
Cells were seeded in triplicate in 96-well plates 1 day prior to drug treatment for all assays. For viability test and IC50 assessment, the alamarBlue™ Cell Viability Reagent (Thermo Fisher Scientific) was added to cells 7 days after PROTAC treatment, followed by fluorescence detection as the manufacturer instructed. The IC50 was calculated by dose-inhibition regression. For proliferation monitoring, 2, 4, 6 and 8 days after PROTAC treatment (day 0), viable cells were detected by MTT Cell Proliferation Kit I (Sigma–Aldrich) according to the manufacturer's instructions. Cellular caspase activity was measured by Caspase-Glo 3/7 Assay System (Promega) 1 or 2 days after the drug treatment.
Figure S15. ITRI-90 is ineffective for AR-n egative PC3 cells. (a) CWR22Rv1 and PC3 cell viability was detected upon 7 days treatment of ITRI-90. (b,c) Antitumor activity of ITRI -90 towards PC3 tumor xenografts.
PC3 tumor xenografts implanted in SCID mice were treated with ITRI-90 orally using 100 mg/kg twice daily dosing. The numbers of tumor in each group is as indicated. (b) Scatter plots of the tumor size. (c) Western blotting of AR and AR -V proteins in the tumors collected at the final time points. CWR22Rv1 xenograft samples from Figure 7i were used as positive control for AR and AR-V expression.
(1 picture or pasted object on this page, not shown here)

Test [2] has as its system AR-negative PC3 prostate cancer model. The test is described as follows: PC3 xenograft negative control study. The test is classed as in vivo, mouse. The note with it: PO 100 mg/kg twice daily. The procedure:
Immunodifficient male C.B-17 SCID mice (NOD.CB17-Prkdc^scid/NcrCrlBltw) at 4–6 weeks of age were purchased from BioLASCO Taiwan Co., Ilan, Taiwan. All mice were housed in conventional cages in the AAALAC Full Accreditation (2011) in Industrial Technology Research Institute and were allowed to acclimatize and recover from shipping-related stress for one week prior to the study. The health of the mice was monitored by daily observations. Animals were kept in rooms at temperature of 22–26 °C with 40–70% humidity, positive pressure, 60% air recirculation, ventilation rate 15–20 changes per hour, and a controlled light–dark cycle (12–12 h). […] Tumors were measured with calipers, and tumor size was calculated as follows: tumor volume (V) = (L × S^2)/2 (L, longest diameter, mm; S, shortest diameter, mm). […] Tumor size and body weight of the animals were monitored and recorded two to three times per week. […] The drug antitumor efficacy was presented as percentages of TGI of each tested animal, calculated as follows: [1 − (final tumor volume − initial tumor volume of the treated group)/average of (final tumor volume − initial tumor volume of the vehicle group)] × 100. Body weight of each mouse was also compared to that on the first day of treatment (day 0) and expressed as a percentage of day 0 value. […]
Figure S15. […] (a) CWR22Rv1 and PC3 cell viability was detected upon 7 days treatment of ITRI-90. […]

On to `Cc1ncsc1-c1ccc(CNC(=O)[C@@H]2C[C@H](O)CN2C(=O)[C@@H](NC(=O)COCCCCOc2ccc(C3CCN(C4=Nn5c(nnc5C(F)(F)F)CC4)CC3)cc2)C(C)(C)C)cc1` [ITRI-90, (2S,4S)-1-((S)-3,3-dimethyl-2-(2-(4-(4-(1-(3-(trifluoromethyl)-7,8-dihydro-[1,2,4]triazolo[4,3-b]pyridazin-6-yl)piperidin-4-yl)phenoxy)butoxy)acetamido)butanoyl)-4-hydroxy-N-(4-(4-methylthiazol-5-yl)benzyl)pyrrolidine-2-carboxamide], for which the PC3 cell viability result in test [1] is on record as “ineffective”. Further, the “antitumor activity towards PC3 tumor xenografts” value in test [2] is listed as “ineffectiveness”.
